Laboratory results taken from patent US6133299A, “Methods for treating neurodegenerative diseases and disorders using N-(2,6-disubstituted aromatic)-N'-pyridinyl ureas and other anticonvulsant compounds” (Warner-Lambert Company, priority 1993, dated 2000).
Entries after “also recorded” stand apart in the source; their conditions may differ.

Assays:
Hippocampal Slices [1] = assay: Recovery of synaptic activity (EPSP) in hippocampal slices after hypoxia-hypoglycemia (Example 4); type: cell-based, rat (male Wistar)
Method: Young male Wistar rats (150 to 250 g) were anesthetized with ketamine (200 mg/kg IP) and ether and were perfused transcardially with cold, oxygenated, low sodium-containing physiological buffer solution (252 mM sucrose, 3.5 mM KCl, 1.0 mM MgSO4, 20 mM CaC1, 26 mM NaHCO3, 1.25 mM NaH2 PO4, and 10 mM glucose) with 50 μM ketamine added. Brains were removed and hippocampi carefully excised. Hippocampi were sliced transversely at 450 μm and transferred into cold (4° C.) low-sodium buffer solution gassed with 95% O2, 5% CO2 at 31° C. After 45 minutes slices were transferred to oxygenated normal physiological solution (126 mM NaCl, 3.5 mM KCl, 1.0 mM MgSO4, 2.0 mM CaCl2, 20 mM NaHCO3, 1.25 mM NaH2 PO4, and 10 mM glucose) at 31° C. for at least 1 hour before experiments began. After preincubation, slices were transferred to a heated (36° C.), gassed incubation chamber where they were continuously superfused with gassed normal physiological solution. Evoked extracellular synaptic potentials (EPSPs) were obtained using glass micropipettes placed approximately 100 μm into the slice. Electrical stimulation was applied once per minute to the stratum radiatum by insulated paired nichrome wires (60 μm diameter). Stimuli consisted of 150 μA pulses lasting 0.4 msec. […] Data from a slice were used only if EPSP amplitude was greater than 2.0 mV before hypoxia-hypoglycemia.
(§1) Evoked potentials were recorded and analyzed with a digital computer interface. Experiments were started by recording for several minutes under normal conditions (95% O2, 5% CO2, 10 mM glucose). Then drug was added to the superfusion solution (or normal solution was continued in control experiments). After 10 minutes of drug superfusion, hypoxia-hypoglycemia was induced by switching to superfusion solution containing added drug with low glucose (2 mM) that was equilibrated with 95% N2 and 5% CO2. At the same time the slice chamber gas was switched to 95% N2 and 5% CO2. Hypoxia-hypoglycemia was continued for 12 minutes. After 12 minutes, 95% O2 and 10 mM glucose were returned to the slices and the superfusing solution. Following 15 minutes of reoxygenation, the experiment was ended. EPSPs were considered recovered if they returned to at least half of their original amplitude. The percentage of slices with recovered EPSPs were calculated for each condition.
This study was identical in design to Example 3 except that during the hypoxic period of 12 minutes, glucose was reduced from 10 mM to 2 mM rather than from 10 mM to zero as in Example 3.

[2] = tested on: neuroprotective capabilities; assay: Neuroprotective capabilities in vitro (general statement); type: cell-based
[3] = tested on: Neuronal/Glial Cortical Cultures; assay: Hypoxia-induced lactate dehydrogenase release (cell injury) in neuronal/glial cortical cultures; type: cell-based, rat (Sprague Dawley); settings: Rattus norvegicus, read-out: % Inh (percent inhibition of the release of lactate dehydrogenase in comparison to hypoxic control cultures)
Method: An assay was conducted to compare the inhibitory action of various compounds which are the subject of the present invention. The assay measured the oxygen deprivation-induced neuronal cell death from various cortical cultures. Lactate dehydrogenase (LDH) is a cytosolic enzyme that is only present in the extracellular medium if cell membranes rupture, indicating cell death. Therefore, LDH release into the culture medium is a convenient assay of cell death. The results of Table 3 indicate that each of the compounds tested decreased neuronal cell death from hypoxia in vitro.
The uteri of Sprague Dawley rats in their 18th day of fetal gestation were removed under halothane anesthesia and placed in a chilled bath of magnesium and calcium-free Hank's balanced salt solution (HBSS). Cortical brain hemispheres were removed from individual fetuses and digested in 0.1% trypsin in HBSS for 15 minutes at room temperature. Digested tissue was washed three times with HBSS then dissociated into a single cell suspension by trituration with a glass pipette. […] One hundred microliters of this cell suspension was pipetted into individual wells of 96-well tissue culture plates previously coated with poly-L-lysine, then stored in a humidified incubator (37° C., 3% CO2). Glial cell growth was stopped by the addition of 100 μL of 45% DME, 45% HAM F12, and 10% Horse serum (10/0 DME/F12) containing 15 μg/mL of 5-fluoro-2-deoxyuridine and 35 μg/mL of uridine, 3 days after the initial plating. Cultures were fed at 2- or 3-day intervals thereafter by replacing 100 μL of spent medium with an identical volume of fresh 10/0 DME/F12.
Sixteen-day-old cultures were prepared for experiments by removing growth medium from each culture well and rinsing once with 250 μL of Mg^++ -free HBSS containing 1.8 mM Ca^++ and 1 g/L D-glucose (0 Mg-HBSS) Control and test agent solutions, prepared using 0 Mg-HBSS medium, were dispensed in 50 μL aliquots into individual test wells (Total volume/well=50 μL). All liquid medium preparations to this point were equilibrated with […], 5% CO2. Plates were placed into a 37° C., humidified, triple-gas incubator with O2 and CO2 levels maintained at 1% and 10%, respectively. Plates were removed after 7.5 hours of oxygen deprivation and restored to normoxic conditions (20% O2 /10% CO2, 37° C.) following a 50 μL addition to each well of appropriate control or test agent solutions containing 1.8 mM Ca^++, 1.6 mM Mg^++, and 7.0 g/L D-glucose. Final medium concentrations of 1.8 mM Ca^++, 0.8 mM Mg^++, and 4 g/L D-glucose were present during the reoxygenation period.
Medium concentrations of lactate dehydrogenase (LDH), a cytosolic enzyme normally retained by cells but released upon cell death, were determined for each well following an additional 16.5-hour normoxic exposure period. Individual 25 μL medium specimens were collected from each well and placed into wells of a clean 96-well microtiter plate containing 225 μL of 0.1 M KPO4 buffer (pH=7.5 at 25° C.) and 30 μg NADH (reduced […] adenine dinucleotide). After 10-minute incubation at 37° C., 30 μL of 2.4 mM sodium pyruvate was added to each well and plates were gently shaken to mix solution. Plates were immediately placed into a Multiscan MCC/340 plate reader and scanned for […] (excitation at 340 nm) for 1 minute at 5-second intervals. A kinetic analysis of the change in medium absorbance resulting from shifts in NADH concentrations was used, in combination with factors to correct for temperature, light path, and volume adjustments to determine medium LDH concentrations (IU/mL). Normoxic control baseline LDH levels were subtracted from both hypoxic control and test agent values prior to determining test agent effectiveness in preventing oxygen deprivation-induced injury.

[4] = tested on: voltage-dependent sodium channels; settings: cited from earlier work
Hippocampal Slices [5] = assay: Recovery of synaptic activity (EPSP) in hippocampal slices after hypoxia-hypoglycemia (Example 3); type: cell-based, rat (male Wistar); settings: for percentage of slices that recovered EPSPs: control approximately 5%
Method: An in vitro model with rat hippocampal brain slices exposed to hypoxia-hypoglycemia was used to simulate ischemia. Neuroprotection was measured by the recovery of excitatory postsynaptic potentials after reoxygenation.
Young male Wistar rats (150 to 250 g) were anesthetized with ketamine (200 mg/kg IP) and ether and were perfused transcardially with cold, oxygenated, low sodium-containing physiological buffer solution (252 mM sucrose, 3.5 mM KCl, 1.0 mM MgSO4, 20 mM CaC1, 26 mM NaHCO3, 1.25 mM NaH2 PO4, and 10 mM glucose) with 50 μM ketamine added. Brains were removed and hippocampi carefully excised. Hippocampi were sliced transversely at 450 μm and transferred into cold (4° C.) low-sodium buffer solution gassed with 95% O2, 5% CO2 at 31° C. After 45 minutes slices were transferred to oxygenated normal physiological solution (126 mM NaCl, 3.5 mM KCl, 1.0 mM MgSO4, 2.0 mM CaCl2, 20 mM NaHCO3, 1.25 mM NaH2 PO4, and 10 mM glucose) at 31° C. for at least 1 hour before experiments began. After preincubation, slices were transferred to a heated (36° C.), gassed incubation chamber where they were continuously superfused with gassed normal physiological solution. Evoked extracellular synaptic potentials (EPSPs) were obtained using glass micropipettes placed approximately 100 μm into the slice. Electrical stimulation was applied once per minute to the stratum radiatum by insulated paired nichrome wires (60 μm diameter). Stimuli consisted of 150 μA pulses lasting 0.4 msec. The 150 μA stimulus usually gave nearly a maximal EPSP (excitatory postsynaptic potential) amplitude. Data from a slice were used only if EPSP amplitude was greater than 2.0 mV before hypoxia-hypoglycemia.
as §1

Hippocampal Slices [6] = assay: Effect on synaptic potentials / presynaptic action potential in slices before hypoxia; type: cell-based, rat (male Wistar); settings: concentrations used, before hypoxia
Method: Young male Wistar rats (150 to 250 g) were anesthetized with ketamine (200 mg/kg IP) and ether and were perfused transcardially with cold, oxygenated, low sodium-containing physiological buffer solution (252 mM sucrose, 3.5 mM KCl, 1.0 mM MgSO4, 20 mM CaC1, 26 mM NaHCO3, 1.25 mM NaH2 PO4, and 10 mM glucose) with 50 μM ketamine added. Brains were removed and hippocampi carefully excised. Hippocampi were sliced transversely at 450 μm and transferred into cold (4° C.) low-sodium buffer solution gassed with 95% O2, 5% CO2 at 31° C. After 45 minutes slices were transferred to oxygenated normal physiological solution (126 mM NaCl, 3.5 mM KCl, 1.0 mM MgSO4, 2.0 mM CaCl2, 20 mM NaHCO3, 1.25 mM NaH2 PO4, and 10 mM glucose) at 31° C. for at least 1 hour before experiments began. After preincubation, slices were transferred to a heated (36° C.), gassed incubation chamber where they were continuously superfused with gassed normal physiological solution. Evoked extracellular synaptic potentials (EPSPs) were obtained using glass micropipettes placed approximately 100 μm into the slice. […]
Evoked potentials were recorded and analyzed with a digital computer interface. […] The percentage of slices with recovered EPSPs were calculated for each condition.
Excitatory synaptic potential (EPSP) amplitude was measured before and during drug treatment in the 10-minute period preceding reduced oxygen and glucose. […]

cytokinin activity = settings: cited from earlier work

NC(=O)N1c2ccccc2C=Cc2ccccc21 [Carbamazepine, carbamazepine]
Number Slices Recovered / Number Slices Tested (≥50% EPSP amplitude recovery after reoxygenation) (Hippocampal Slices [1]; 20 μM): 2/9
Number Slices Recovered / Number Slices Tested (≥50% EPSP amplitude recovery after reoxygenation) (Hippocampal Slices [1]; 50 μM): 4/10
neuroprotective capabilities [2]: shown in vitro to have neuroprotective capabilities
inhibition at 30 µM [3]: 53%
inhibition at 100 µM [3]: 95%
action on voltage-dependent sodium channels [4]: more selective for sodium channels

Nc1nnc(-c2cccc(Cl)c2Cl)c(N)n1 [Lamotrigine, lamotrigine]
neuroprotective capabilities [2]: shown in vitro to have neuroprotective capabilities
inhibition at 30 µM [3]: 68%
inhibition at 100 µM [3]: 83%

O=C(Nc1ccncc1)Nc1c(Cl)cccc1Cl [N-(2,6-Dichlorophenyl)-N'-4-pyridinyl urea]
inhibition at 30 µM [3]: 62%
inhibition at 100 µM [3]: 88%

Cc1cccc(C)c1NC(=O)Nc1ccncc1 [N-(2,6-dimethylphenyl)-N'-4-pyridinyl urea]
inhibition at 30 µM [3]: 106%
inhibition at 100 µM [3]: 81%

Cc1cccc(Cl)c1NC(=O)Nc1ccncc1 [N-(2-chloro-6-methylphenyl)-N'-4-pyridinyl urea]
Number Slices Recovered / Number Slices Tested (≥50% EPSP amplitude recovery after reoxygenation) (Hippocampal Slices [5]; 0.5 μM): 0/8
changes from hypoxia (Hippocampal Slices [5]; 0.5 μM): not different from control treatments
Number Slices Recovered / Number Slices Tested (≥50% EPSP amplitude recovery after reoxygenation) (Hippocampal Slices [5]; 2 μM): 3/8
mean EPSP amplitude after hypoxia (Hippocampal Slices [5]; 2 μM): near significance
protection / improved recovery of EPSPs (Hippocampal Slices [5]; 2 μM and 20 μM): significant protection of hippocampal slices from irreversible loss of synaptic potentials; also recorded: improves recovery of EPSPs
percentage of slices that recovered EPSPs (Hippocampal Slices [5]; 2 μM): 37%
Number Slices Recovered / Number Slices Tested (≥50% EPSP amplitude recovery after reoxygenation) (Hippocampal Slices [5]; 20 μM): 9 out of 10
mean EPSP amplitude after hypoxia (Hippocampal Slices [5]; 20 μM): significant with a high degree of confidence; also recorded: almost complete recovery of EPSPs
protection from loss of EPSPs (Hippocampal Slices [5]; 20 μM): almost complete protection from loss of EPSPs
percentage of slices that recovered EPSPs (Hippocampal Slices [5]; 20 μM): 90%
Number Slices Recovered / Number Slices Tested (≥50% EPSP amplitude recovery after reoxygenation) (Hippocampal Slices [5]; 20 μM, listed as Test drug): 9/10
mean EPSP amplitude after hypoxia, overall effect (Hippocampal Slices [5]; concentration-related, 0.5-20 μM): significantly increased the mean EPSP amplitude after hypoxia; also recorded: increased EPSP amplitude following hypoxia in a concentration-dependent manner
inhibition at 30 µM [3]: 101%
inhibition at 100 µM [3]: 80%
action on voltage-dependent sodium channels [4]: modulates voltage-dependent sodium channels of nerve cell membranes; also recorded: modulator of neuronal voltage-gated sodium ion channels
effect on EPSP / presynaptic action potential amplitude (Hippocampal Slices [6]): none of the concentrations tested reduced EPSP or presynaptic action potential amplitude

O=C(Nc1cccnc1)Nc1ccc(Cl)c(Cl)c1 [N-(3,4-dichlorophenyl)-N'-3-pyridinyl urea]
cytokinin activity (cytokinin activity): show such activity

O=C(Nc1ccncc1)Nc1ccc(Cl)c(Cl)c1 [N-(3,4-dichlorophenyl)-N'-4-pyridinyl urea]
cytokinin activity (cytokinin activity): show such activity

COCCOC(=O)C1=C(C)NC(C)=C(C(=O)OC(C)C)C1c1cccc([N+](=O)[O-])c1 (centres unmarked) [Nimodipine, nimodipine]
prevention of ischemic damage / loss of EPSPs (Hippocampal Slices [1]; 1 μM): failed to prevent loss of EPSPs
Number Slices Recovered / Number Slices Tested (≥50% EPSP amplitude recovery after reoxygenation) (Hippocampal Slices [1]; 1.0 μM): 1/9
concentration at which it interacts with sodium channels [4]: greater than 10 μM

Cc1cccc(Cl)c1NC(=O)/C=C1\SCC(=O)N1C [ralitoline]
neuroprotective capabilities [2]: shown in vitro to have neuroprotective capabilities
